# Laboratory results as given in the NIST ThermoML archive (doi:10.1016/j.jct.2006.07.022).
# ± gives the expanded uncertainty stated by the source.
# Test: xn = mol fraction of the nth substance listed
# Details: 101 kPa, Liquid
compound,measurement,setting,value
CCc1ccccc1 [ethylbenzene] + CN(C)C=O,mass density,"293.15 K, x1 = 0.0514",942.69 ± 0.26 kg/m3
same,mass density,"293.15 K, x1 = 0.1124",936.07 ± 0.28 kg/m3
same,mass density,"293.15 K, x1 = 0.1754",929.58 ± 0.29 kg/m3
same,mass density,"293.15 K, x1 = 0.2451",922.8 ± 0.31 kg/m3
same,mass density,"293.15 K, x1 = 0.3102",916.81 ± 0.33 kg/m3
same,mass density,"293.15 K, x1 = 0.3754",911.11 ± 0.34 kg/m3
same,mass density,"293.15 K, x1 = 0.4514",904.81 ± 0.36 kg/m3
same,mass density,"293.15 K, x1 = 0.5214",899.3 ± 0.37 kg/m3
same,mass density,"293.15 K, x1 = 0.5862",894.43 ± 0.39 kg/m3
same,mass density,"293.15 K, x1 = 0.6478",890 ± 0.4 kg/m3
same,mass density,"293.15 K, x1 = 0.7012",886.28 ± 0.41 kg/m3
same,mass density,"293.15 K, x1 = 0.7658",881.94 ± 0.43 kg/m3
same,mass density,"293.15 K, x1 = 0.8214",878.33 ± 0.44 kg/m3
same,mass density,"293.15 K, x1 = 0.8845",874.33 ± 0.45 kg/m3
same,mass density,"293.15 K, x1 = 0.9451",870.6 ± 0.47 kg/m3
same,mass density,"293.15 K, x1 = 1",867.28 ± 0.48 kg/m3
same,mass density,"303.15 K, x1 = 0.0562",933.08 ± 0.28 kg/m3
same,mass density,"303.15 K, x1 = 0.1141",926.82 ± 0.29 kg/m3
same,mass density,"303.15 K, x1 = 0.1865",919.45 ± 0.31 kg/m3
same,mass density,"303.15 K, x1 = 0.2451",913.8 ± 0.32 kg/m3
same,mass density,"303.15 K, x1 = 0.3065",908.15 ± 0.34 kg/m3
same,mass density,"303.15 K, x1 = 0.375",902.18 ± 0.35 kg/m3
same,mass density,"303.15 K, x1 = 0.4354",897.14 ± 0.37 kg/m3
same,mass density,"303.15 K, x1 = 0.4952",892.39 ± 0.38 kg/m3
same,mass density,"303.15 K, x1 = 0.5685",886.81 ± 0.4 kg/m3
same,mass density,"303.15 K, x1 = 0.6284",882.45 ± 0.41 kg/m3
same,mass density,"303.15 K, x1 = 0.7025",877.28 ± 0.43 kg/m3
same,mass density,"303.15 K, x1 = 0.7654",873.05 ± 0.44 kg/m3
same,mass density,"303.15 K, x1 = 0.8251",869.17 ± 0.45 kg/m3
same,mass density,"303.15 K, x1 = 0.8821",865.57 ± 0.47 kg/m3
same,mass density,"303.15 K, x1 = 0.9422",861.86 ± 0.48 kg/m3
same,mass density,"303.15 K, x1 = 1",858.36 ± 0.49 kg/m3
same,mass density,"313.15 K, x1 = 0.0684",922.45 ± 0.29 kg/m3
same,mass density,"313.15 K, x1 = 0.1151",917.46 ± 0.31 kg/m3
same,mass density,"313.15 K, x1 = 0.1855",910.34 ± 0.32 kg/m3
same,mass density,"313.15 K, x1 = 0.2525",903.93 ± 0.34 kg/m3
same,mass density,"313.15 K, x1 = 0.3101",898.69 ± 0.35 kg/m3
same,mass density,"313.15 K, x1 = 0.3852",892.2 ± 0.37 kg/m3
same,mass density,"313.15 K, x1 = 0.4421",887.51 ± 0.38 kg/m3
same,mass density,"313.15 K, x1 = 0.5012",882.85 ± 0.39 kg/m3
same,mass density,"313.15 K, x1 = 0.5688",877.74 ± 0.41 kg/m3
same,mass density,"313.15 K, x1 = 0.6211",873.93 ± 0.42 kg/m3
same,mass density,"313.15 K, x1 = 0.6855",869.42 ± 0.43 kg/m3
same,mass density,"313.15 K, x1 = 0.7451",865.39 ± 0.45 kg/m3
same,mass density,"313.15 K, x1 = 0.8021",861.65 ± 0.46 kg/m3
same,mass density,"313.15 K, x1 = 0.8654",857.62 ± 0.47 kg/m3
same,mass density,"313.15 K, x1 = 0.9325",853.47 ± 0.49 kg/m3
same,mass density,"313.15 K, x1 = 1",849.38 ± 0.5 kg/m3
same,mass density,"323.15 K, x1 = 0.0463",915.35 ± 0.3 kg/m3
same,mass density,"323.15 K, x1 = 0.1125",908.29 ± 0.32 kg/m3
same,mass density,"323.15 K, x1 = 0.1785",901.64 ± 0.33 kg/m3
same,mass density,"323.15 K, x1 = 0.2462",895.17 ± 0.35 kg/m3
same,mass density,"323.15 K, x1 = 0.312",889.22 ± 0.36 kg/m3
same,mass density,"323.15 K, x1 = 0.3745",883.85 ± 0.38 kg/m3
same,mass density,"323.15 K, x1 = 0.4352",878.85 ± 0.39 kg/m3
same,mass density,"323.15 K, x1 = 0.4952",874.12 ± 0.41 kg/m3
same,mass density,"323.15 K, x1 = 0.5552",869.58 ± 0.42 kg/m3
same,mass density,"323.15 K, x1 = 0.6125",865.41 ± 0.43 kg/m3
same,mass density,"323.15 K, x1 = 0.6784",860.79 ± 0.45 kg/m3
same,mass density,"323.15 K, x1 = 0.7451",856.29 ± 0.46 kg/m3
same,mass density,"323.15 K, x1 = 0.8021",852.57 ± 0.47 kg/m3
same,mass density,"323.15 K, x1 = 0.8666",848.48 ± 0.49 kg/m3
same,mass density,"323.15 K, x1 = 0.9451",843.65 ± 0.5 kg/m3
same,mass density,"323.15 K, x1 = 1",840.35 ± 0.51 kg/m3
same,mass density,"333.15 K, x1 = 0.0548",904.7 ± 0.32 kg/m3
same,mass density,"333.15 K, x1 = 0.1241",897.45 ± 0.34 kg/m3
same,mass density,"333.15 K, x1 = 0.1852",891.41 ± 0.35 kg/m3
same,mass density,"333.15 K, x1 = 0.2451",885.77 ± 0.36 kg/m3
same,mass density,"333.15 K, x1 = 0.3021",880.64 ± 0.38 kg/m3
same,mass density,"333.15 K, x1 = 0.3625",875.45 ± 0.39 kg/m3
same,mass density,"333.15 K, x1 = 0.4255",870.27 ± 0.4 kg/m3
same,mass density,"333.15 K, x1 = 0.4954",864.79 ± 0.42 kg/m3
same,mass density,"333.15 K, x1 = 0.5621",859.79 ± 0.43 kg/m3
same,mass density,"333.15 K, x1 = 0.6215",855.53 ± 0.45 kg/m3
same,mass density,"333.15 K, x1 = 0.6865",851.02 ± 0.46 kg/m3
same,mass density,"333.15 K, x1 = 0.7451",847.11 ± 0.47 kg/m3
same,mass density,"333.15 K, x1 = 0.8002",843.53 ± 0.48 kg/m3
same,mass density,"333.15 K, x1 = 0.8621",839.62 ± 0.5 kg/m3
same,mass density,"333.15 K, x1 = 0.9351",835.15 ± 0.51 kg/m3
same,mass density,"333.15 K, x1 = 1",831.25 ± 0.52 kg/m3
same,mass density,"343.15 K, x1 = 0.0689",893.27 ± 0.34 kg/m3
same,mass density,"343.15 K, x1 = 0.132",886.83 ± 0.35 kg/m3
same,mass density,"343.15 K, x1 = 0.1952",880.71 ± 0.37 kg/m3
same,mass density,"343.15 K, x1 = 0.2621",874.55 ± 0.38 kg/m3
same,mass density,"343.15 K, x1 = 0.3262",868.95 ± 0.4 kg/m3
same,mass density,"343.15 K, x1 = 0.3865",863.91 ± 0.41 kg/m3
same,mass density,"343.15 K, x1 = 0.4461",859.15 ± 0.42 kg/m3
same,mass density,"343.15 K, x1 = 0.5121",854.09 ± 0.44 kg/m3
same,mass density,"343.15 K, x1 = 0.5685",849.94 ± 0.45 kg/m3
same,mass density,"343.15 K, x1 = 0.6332",845.36 ± 0.46 kg/m3
same,mass density,"343.15 K, x1 = 0.7095",840.17 ± 0.48 kg/m3
same,mass density,"343.15 K, x1 = 0.7651",836.53 ± 0.49 kg/m3
same,mass density,"343.15 K, x1 = 0.8221",832.9 ± 0.5 kg/m3
same,mass density,"343.15 K, x1 = 0.8858",828.96 ± 0.51 kg/m3
same,mass density,"343.15 K, x1 = 0.9514",824.99 ± 0.53 kg/m3
same,mass density,"343.15 K, x1 = 1",822.11 ± 0.54 kg/m3
same,mass density,"353.15 K, x1 = 0.0458",885.55 ± 0.35 kg/m3
same,mass density,"353.15 K, x1 = 0.1112",878.86 ± 0.36 kg/m3
same,mass density,"353.15 K, x1 = 0.1784",872.35 ± 0.38 kg/m3
same,mass density,"353.15 K, x1 = 0.2351",867.13 ± 0.39 kg/m3
same,mass density,"353.15 K, x1 = 0.2965",861.72 ± 0.4 kg/m3
same,mass density,"353.15 K, x1 = 0.3589",856.48 ± 0.42 kg/m3
same,mass density,"353.15 K, x1 = 0.4152",851.94 ± 0.43 kg/m3
same,mass density,"353.15 K, x1 = 0.4784",847.06 ± 0.44 kg/m3
same,mass density,"353.15 K, x1 = 0.5321",843.06 ± 0.45 kg/m3
same,mass density,"353.15 K, x1 = 0.5962",838.48 ± 0.47 kg/m3
same,mass density,"353.15 K, x1 = 0.6748",833.09 ± 0.48 kg/m3
same,mass density,"353.15 K, x1 = 0.7451",828.47 ± 0.5 kg/m3
same,mass density,"353.15 K, x1 = 0.8032",824.77 ± 0.51 kg/m3
same,mass density,"353.15 K, x1 = 0.8745",820.37 ± 0.52 kg/m3
same,mass density,"353.15 K, x1 = 0.9548",815.56 ± 0.54 kg/m3
same,mass density,"353.15 K, x1 = 1",812.9 ± 0.55 kg/m3
